These results are taken from patent US8633237B2, “Indane derivatives” (Merck Sharp & Dohme B.V., priority 2009, dated 2014).

The test deals with T1, AMPA (GluR1) receptor (Homo sapiens, UniProt P42261).
T1 construct: expressed in transfected cells; host or cells: HEK cells (HEK.GluR1(i)), kept under hygromycin selection
The test is described as follows: Ca2+ influx fluorescence assay (FLEXstation, Fluo-3) in HEK.GluR1(i) cells. The settings on record: glutamate +/- test compound, read-out: EC50, positive modulation of the AMPA receptor. Type of test: cell-based. The source says:
The compounds in this invention may be tested using a biological assay which measures Ca^2+ influx mediated through positive modulation of the AMPA (GluR1) receptor using standard techniques in the art such as, but not limited to, a FLEXstation (manufactured by Molecular Devices, Sunnyvale, Calif.). An optical readout using fluorescent probes is employed to measure ion channel dependent changes in intracellular ion concentration or membrane potential. The assay utilises the Ca^2+ conductance of functional homomeric GluR1(i) AMPA receptors to generate glutamate-dependent Ca^2+ responses. Influx of Ca^2+ through the ion channel is measured indirectly through an increase in intracellular Ca^2+ levels using the calcium sensitive dye such as, but not limited to, Fluo-3 (Molecular Devices, Sunnyvale, Calif.) in FLEXstation. A positive AMPA receptor modulator, in the presence of glutamate, will result in an influx of Ca^2+ through the ion channel which can be measured indirectly through an increase in intracellular Ca2+ levels using the calcium sensitive dye Fluo-3 in FLEXstation.
HEK.GluR1(i) cells were maintained in DMEM supplemented with 10% fetaclone II, 1% non-essential amino acids and 150 μg/mL hygromycin, at 37° C./5% CO2. […]

T1 sequence (P42261 19-906 isoform P42261-2 limits assumed, species assumed): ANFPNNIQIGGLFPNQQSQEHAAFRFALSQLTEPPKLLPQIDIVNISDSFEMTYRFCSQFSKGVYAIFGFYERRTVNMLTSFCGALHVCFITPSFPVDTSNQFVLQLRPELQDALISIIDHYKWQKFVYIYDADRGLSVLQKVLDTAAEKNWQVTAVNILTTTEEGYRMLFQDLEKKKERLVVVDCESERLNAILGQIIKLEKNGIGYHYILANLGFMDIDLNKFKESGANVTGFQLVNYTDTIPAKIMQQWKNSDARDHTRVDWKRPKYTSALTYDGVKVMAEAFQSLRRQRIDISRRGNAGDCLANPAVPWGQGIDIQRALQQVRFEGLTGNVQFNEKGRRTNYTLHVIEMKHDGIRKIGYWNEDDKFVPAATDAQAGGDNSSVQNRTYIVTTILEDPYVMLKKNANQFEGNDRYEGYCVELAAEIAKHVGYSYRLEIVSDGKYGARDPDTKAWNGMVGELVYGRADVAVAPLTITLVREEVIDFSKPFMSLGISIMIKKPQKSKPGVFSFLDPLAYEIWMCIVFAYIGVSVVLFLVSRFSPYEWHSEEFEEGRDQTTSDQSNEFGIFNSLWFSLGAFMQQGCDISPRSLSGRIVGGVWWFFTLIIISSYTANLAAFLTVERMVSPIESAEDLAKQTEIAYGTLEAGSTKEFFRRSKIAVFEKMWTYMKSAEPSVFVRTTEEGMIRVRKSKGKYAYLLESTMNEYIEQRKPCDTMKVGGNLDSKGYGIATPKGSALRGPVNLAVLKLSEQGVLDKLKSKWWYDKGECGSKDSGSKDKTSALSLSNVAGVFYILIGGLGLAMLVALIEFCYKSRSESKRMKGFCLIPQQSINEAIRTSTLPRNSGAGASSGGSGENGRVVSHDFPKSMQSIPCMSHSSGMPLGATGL

For orientation: EC50 means the concentration giving half of the maximal effect. With `CC(C)S(=O)(=O)N[C@H]1Cc2ccc(Oc3cccc(C(F)(F)F)c3)cc2C1` [Example 9, (S)-N-(5-(3-(trifluoromethyl)phenoxy)-2,3-dihydro-1H-inden-2-yl)propane-2-sulfonamide], the concentration giving a half-maximal response (EC50) came to 2300 nM.
